# In patent publication US8293489B2, “Methods for detection of biological substances” (priority 2007, dated 2012):
# Marks after values point to notes of the source that are not given here.
# How the values were obtained:
# Format in all cases: in vivo, human
# TNFR 1 = TNFR 1 in nasal mucus in patients with hyposmia treated with theophylline
# From the text: (§1) Tables 36-38 illustrate detection and measurement of TNFα, TNFR 1 and TNFR 2 in nasal mucus of patients with graded loss of smell following treatment with theophylline. […] Further, nasal mucus can be used as an index of disease, disease severity and efficacy of disease treatment. Without limiting the scope of the present invention, this approach is applicable to other substances in nasal mucus in relationship to other disease processes (e.g., cancer, stroke) and to follow-up of their treatment with any drug. […]
# With increased smell loss pre treatment TNFR 1 levels were increased in nasal mucus in patients with Type I hyposmia (whose smell loss was increased over that of patients with Type II hyposmia). After theophylline treatment, as a dose of drug increased, TNFR 1 levels decreased in Type I associated with increases in smell function. […] The greater was the smell loss, the higher was the level of TNFR 1.
# TNFα = TNFα in nasal mucus in patients with hyposmia treated with theophylline
# From the text: as §1
# These studies were extended to reveal levels of TNFα in nasal mucus of patients with graded loss of smell following treatment with theophylline (Table 36). Smell loss was graded such that loss was greatest in Type I hyposmia, less in Type II and still less in Type III (I>II>III). […] In Type I hyposmia TNFα decreased 40% after treatment with 400 mg theophylline and 57% after treatment 600 mg. In Type II hyposmia TNFα decreased 11% after treatment with 600 mg theophylline.
# TRAIL = TRAIL in nasal mucus in patients with hyposmia before and after treatment with theophylline; conditions: for Nasal mucus TRAIL: patients with hyposmia (5)
# From the text: Table 16 illustrates detection and measurement of TRAIL in nasal mucus in patients with hyposmia before and after treatment with theophylline at various doses. […] Without limiting the scope of the present invention, other drugs are also considered with in the scope of the present invention for the treatment of various diseases. This is one of the example of the multiple examples of drugs to treat disease in which changes of various substances found in nasal mucus reflect biochemical normalization and functional improvement in the disease process.
# Table 16 illustrates detection and measurement of TRAIL in nasal mucus in patients with hyposmia before and after treatment with theophylline at various doses.
# TNFR 2 = TNFR 2 in nasal mucus in patients with hyposmia treated with theophylline
# From the text: Tables 36-38 illustrate detection and measurement of TNFα, TNFR 1 and TNFR 2 in nasal mucus of patients with graded loss of smell following treatment with theophylline. […] Further, nasal mucus can be used as an index of disease, disease severity and efficacy of disease treatment. Without limiting the scope of the present invention, this approach is applicable to other substances in nasal mucus in relationship to other disease processes (e.g., cancer, stroke) and to follow-up of their treatment with any drug.
# Table 35 illustrates detection and measurement of TNFα, and soluble TNF receptors 1 and 2, moieties in the nasal mucus. TNFα, and soluble TNF receptors 1 and 2 increase in systems undergoing excessive apoptosis.
# With a dose dependent increase of theophylline treatment levels of TNFR 2 in nasal mucus decreased consistent with a dose dependent increase in smell function. Levels of TNFR 2 in patients with Type I and Type II hyposmia decreased almost 50% on 600 mg theophylline consistent with their greatest return of smell function. At this highest level of theophylline levels of TNFR 2 were decreased in relationship to the decrease in smell function—TNFR 2, Type I>Type II>Type III; smell loss, Type I>Type II>Type III.
# patients with hyposmia = assay: Smell function in patients with hyposmia treated with theophylline
# From the text: Theophylline may also restore smell function through other mechanisms.
# Its continual measurement during treatment of these disorders helps in monitoring efficacy of therapy. The detection of NO in nasal mucus provides a non invasive method of diagnosing various diseases related to human physiology and pathology.
# nitric oxide (NO) = assay: NO in nasal mucus in patients with hyposmia before and after theophylline treatment; conditions: for NO in nasal mucus: Patients (12)
# From the text: Table 33 in the examples illustrates NO in nasal mucus in patients treated with theophylline in various doses before and after drug treatment. NO levels in nasal mucus changed following the treatment of patients with smell loss. […] Its continual measurement during treatment of the disorders helps in monitoring efficacy of therapy. The detection of NO in nasal mucus provides a non invasive method of diagnosing various diseases related to human physiology and pathology. The methods of the present invention include treatment of diseases by modulating the concentrations of NO by use of drugs or agents. The method of treatment is preferably by nasal administration.
# Table 33 illustrates NO levels in nasal mucus in patients treated with Theophylline in various doses before and after drug treatment. NO levels in nasal mucus changed following the treatment of patients with smell loss. […] Its continual measurement during treatment of these disorders helps in monitoring efficacy of therapy. The detection of NO in nasal mucus provides a non invasive method of diagnosing various diseases related to human physiology and pathology.
# [1] = HYPOSMIA TYPE I (7), theophylline 200 mg orally daily
# [2] = HYPOSMIA TYPE I (7), theophylline 600 mg orally daily
# [3] = HYPOSMIA TYPE II (10), theophylline 200 mg orally daily
# [4] = HYPOSMIA TYPE II (10), theophylline 400 mg orally daily
# [5] = HYPOSMIA TYPE II (10), theophylline 600 mg orally daily
# [6] = HYPOSMIA TYPE III (2), theophylline 600 mg orally daily
# [7] = patients with hyposmia, stepwise increase in theophylline treatment
# [8] = patients with hyposmia, theophylline at various doses
# [9] = patients with hyposmia, theophylline in graded doses
smiles,measurement,setting,value
Cn1c(=O)c2[nH]cnc2n(C)c1=O [theophylline],TNFR 1 in nasal mucus,TNFR 1; [1],"6,521 ± 1,304^c"
same,TNFR 1 in nasal mucus,"TNFR 1; HYPOSMIA TYPE I (7), theophylline 400 mg orally daily","1,498"
same,TNFR 1 in nasal mucus,TNFR 1; [2],"1,832 ± 704^a"
same,TNFR 1 in nasal mucus,TNFR 1; [3],"1,462 ± 371"
same,TNFR 1 in nasal mucus,TNFR 1; [4],"1,087 ± 335"
same,TNFR 1 in nasal mucus,TNFR 1; [5],862 ± 335
same,TNFR 1 in nasal mucus,TNFR 1; [6],585 ± 335
same,change in TNFR 1 levels in nasal mucus,"TNFR 1; Type I hyposmia, as dose of drug increased",decreased
same,TNFR 1 in nasal mucus,"TNFR 1; patients with hyposmia (19), Theophylline treatment 200","3,148 ± 663 pg/ml"
same,TNFR 1 in nasal mucus,"TNFR 1; patients with hyposmia (19), Theophylline treatment 400","1,146 ± 220^b pg/ml"
same,TNFR 1 in nasal mucus,"TNFR 1; patients with hyposmia (19), Theophylline treatment 600","1,220 ± 286^ab pg/ml"
same,change in soluble TNF receptor 1 in nasal mucus,TNFR 1; [7],significant dose-response decrease
same,TNF∝ in nasal mucus,"TNFα; HYPOSMIA TYPE I (8), theophylline 400 mg orally daily",15.6
same,TNF∝ in nasal mucus,"TNFα; HYPOSMIA TYPE I (8), theophylline 600 mg orally daily",11.2 ± 4.4
same,TNF∝ in nasal mucus,"TNFα; HYPOSMIA TYPE II (13), theophylline 200 mg orally daily",14.9 ± 2.5
same,TNF∝ in nasal mucus,"TNFα; HYPOSMIA TYPE II (13), theophylline 400 mg orally daily",11.5 ± 3.2
same,TNF∝ in nasal mucus,"TNFα; HYPOSMIA TYPE II (13), theophylline 600 mg orally daily",4.3 ± 0.8^a
same,TNF∝ in nasal mucus,"TNFα; HYPOSMIA TYPE III (3), theophylline 600 mg orally daily",1.2 ± 0.7^bc
same,decrease in TNFα in nasal mucus,"TNFα; Type I hyposmia, after treatment 600 mg theophylline",57%
same,decrease in TNFα in nasal mucus,"TNFα; Type I hyposmia, after treatment with 400 mg theophylline",40%
same,decrease in TNFα in nasal mucus,"TNFα; Type II hyposmia, after treatment with 600 mg theophylline",11%
same,change in TNFα levels in nasal mucus,"TNFα; each hyposmia patient group, with each increased dose of theophylline",decreased in each patient group
same,TNF∝ in nasal mucus,"TNFα; patients with hyposmia (24), Theophylline treatment (mg/l) 200",20.0 ± 2.8 pg/mL
same,TNF∝ in nasal mucus,"TNFα; patients with hyposmia (24), Theophylline treatment (mg/l) 400",12.1 ± 2.1^d pg/ml
same,TNF∝ in nasal mucus,"TNFα; patients with hyposmia (24), Theophylline treatment (mg/l) 600",7.4 ± 1.8^a pg/ml
same,change in TNFα in nasal mucus,TNFα; [7],significant dose-response decrease
same,Nasal mucus TRAIL,TRAIL; theophylline 200 mg,855 µg/mL
same,Nasal mucus TRAIL,TRAIL; theophylline 400 mg,791 µg/mL
same,Nasal mucus TRAIL,TRAIL; theophylline 600 mg,247 µg/mL
same,change in TRAIL in nasal mucus,TRAIL; [8],dose-dependent decrease in TRAIL
same,TNFR 2 in nasal mucus,TNFR 2; [1],"3,100 ± 1,184"
same,TNFR 2 in nasal mucus,TNFR 2; [2],"1,491 ± 1,102"
same,TNFR 2 in nasal mucus,TNFR 2; [3],"1,378 ± 480"
same,TNFR 2 in nasal mucus,TNFR 2; [4],"1,014 ± 272"
same,TNFR 2 in nasal mucus,TNFR 2; [5],553 ± 158
same,TNFR 2 in nasal mucus,TNFR 2; [6],436 ± 443
same,change in TNFR 2 levels in nasal mucus,TNFR 2; dose dependent increase of theophylline treatment,decreased
same,decrease in TNFR 2 levels in nasal mucus,"TNFR 2; patients with Type I and Type II hyposmia, 600 mg theophylline",~50%
same,TNFR 2 in nasal mucus,"TNFR 2; patients with hyposmia (18), Theophylline treatment (mg orally daily) 200","1,952 ± 339 pg/ml"
same,TNFR 2 in nasal mucus,"TNFR 2; patients with hyposmia (18), Theophylline treatment (mg orally daily) 400",949 ± 180^c pg/ml
same,TNFR 2 in nasal mucus,"TNFR 2; patients with hyposmia (18), Theophylline treatment (mg orally daily) 600",916 ± 344 pg/mL
same,change in soluble TNF receptor 2 in nasal mucus,TNFR 2; [7],significant dose-response decrease
same,smell function,"patients with hyposmia; patients with hyposmia (loss of smell), general statement",restores smell function in some patients with hyposmia
same,smell function,"patients with hyposmia; patients with hyposmia, 600 mg theophylline",restored smell function to or toward normal
same,smell function,patients with hyposmia; [8],returned smell function to normal in a dose-dependent manner
same,smell function,patients with hyposmia; [9],graded increases in smell function
same,NO in nasal mucus,nitric oxide (NO); Theophylline 200 mg,0.25 ± 0.01 µg/mL
same,NO in nasal mucus,nitric oxide (NO); Theophylline 400 mg,0.40 ± 0.06 µg/mL
same,NO in nasal mucus,nitric oxide (NO); Theophylline 600 mg,0.59 ± 0.16 µg/mL
same,change in NO in nasal mucus,nitric oxide (NO); [9],increases in nasal mucus NO
